Assay results published in ChEMBL document CHEMBL1142207, “Aspirin antagonism in isoniazid treatment of tuberculosis in mice” (2007).
The source made the active and inactive calls. No cut-off for these calls is given here.

Key:
[1] = tested on: Mycobacterium tuberculosis; assay: Decrease in spleen infection of BALB/c mouse infected with Mycobacterium tuberculosis H37Rv at 10 mg/kg, po five times/week after 1 month relative to control; assay type: functional
[2] = tested on: Mycobacterium tuberculosis; assay: Decrease in spleen infection of BALB/c mouse infected with Mycobacterium tuberculosis H37Rv at 20 mg/kg, po five times/week after 1 month relative to control; assay type: functional
[3] = tested on: Mycobacterium tuberculosis; assay: Decrease in spleen infection of BALB/c mouse infected with Mycobacterium tuberculosis H37Rv at 40 mg/kg, po five times/week after 1 month relative to control; assay type: functional
[4] = tested on: Mycobacterium tuberculosis; assay: Clearance of Mycobacterium tuberculosis H37Rv in BALB/c mouse lung at 25 mg/kg, po five times/week after 1 month relative to control; assay type: functional, organism-based; set-up: dose 25 mg/kg
[5] = tested on: Mycobacterium tuberculosis; assay: Clearance of Mycobacterium tuberculosis H37Rv in BALB/c mouse spleen at 25 mg/kg, po five times/week after 1 month relative to control; assay type: functional, organism-based; set-up: dose 25 mg/kg

| Structure (SMILES) | Log10 cfu [1] | Log10 cfu [2] | Log10 cfu [3] | Activity [4] | Activity [5] |
| --- | --- | --- | --- | --- | --- |
| CC(=O)Oc1ccccc1C(=O)O [ASPIRIN] | 3.48 | 4.55 | 4.38 | – | – |
| NNC(=O)c1ccncc1 | – | – | – | Active | Active |
